This is an account of results in ChEMBL document CHEMBL2163249, “Exploration of natural compounds as sources of new bifunctional scaffolds targeting cholinesterases and beta amyloid aggregation: the case of chelerythrine” (Bioorg Med Chem, 2012).

The nature of assay [1]: Inhibition of amyloid beta (1 to 42) aggregation.
Assay [2] is described as follows: Inhibition of HFIP-induced amyloid beta (1 to 40) aggregation at 250 uM after 45 mins by thioflavin T fluorescence method.
Assay [3] has as its target Cholinesterase (Equus caballus, UniProt P81908). In words: Inhibition of horse BChE by Ellman's method. A general note: In Ellman's method for cholinesterases, released thiocholine reacts with DTNB.
For assay [4], the target named is Acetylcholinesterase (Electrophorus electricus, UniProt O42275). The experiment in a line: Inhibition of electric eel AChE by Ellman's method.
Chain of Acetylcholinesterase (Electrophorus electricus, UniProt O42275) (O42275 whole entry): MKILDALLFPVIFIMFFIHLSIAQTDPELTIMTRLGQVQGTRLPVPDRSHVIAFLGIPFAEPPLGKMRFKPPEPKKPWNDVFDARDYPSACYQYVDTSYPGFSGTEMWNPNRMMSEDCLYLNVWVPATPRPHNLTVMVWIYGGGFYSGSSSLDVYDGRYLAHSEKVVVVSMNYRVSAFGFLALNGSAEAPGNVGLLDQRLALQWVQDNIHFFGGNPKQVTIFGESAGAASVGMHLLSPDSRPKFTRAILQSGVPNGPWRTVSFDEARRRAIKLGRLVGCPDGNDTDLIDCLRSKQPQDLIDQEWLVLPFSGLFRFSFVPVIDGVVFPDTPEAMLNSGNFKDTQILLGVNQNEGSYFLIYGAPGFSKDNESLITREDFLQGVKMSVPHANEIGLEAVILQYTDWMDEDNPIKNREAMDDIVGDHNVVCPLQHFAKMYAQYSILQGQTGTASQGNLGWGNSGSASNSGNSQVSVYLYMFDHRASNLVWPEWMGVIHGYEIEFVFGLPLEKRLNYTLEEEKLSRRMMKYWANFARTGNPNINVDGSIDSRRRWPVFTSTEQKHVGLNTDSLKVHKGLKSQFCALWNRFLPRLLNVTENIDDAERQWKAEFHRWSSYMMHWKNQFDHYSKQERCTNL
Assay [5] deals with Acetylcholinesterase (Electrophorus electricus) (UniProt O42275). Particulars: at 2 mg/mL; call rule not given here.
Chain of Acetylcholinesterase (Electrophorus electricus) (O42275 24-633 limits assumed): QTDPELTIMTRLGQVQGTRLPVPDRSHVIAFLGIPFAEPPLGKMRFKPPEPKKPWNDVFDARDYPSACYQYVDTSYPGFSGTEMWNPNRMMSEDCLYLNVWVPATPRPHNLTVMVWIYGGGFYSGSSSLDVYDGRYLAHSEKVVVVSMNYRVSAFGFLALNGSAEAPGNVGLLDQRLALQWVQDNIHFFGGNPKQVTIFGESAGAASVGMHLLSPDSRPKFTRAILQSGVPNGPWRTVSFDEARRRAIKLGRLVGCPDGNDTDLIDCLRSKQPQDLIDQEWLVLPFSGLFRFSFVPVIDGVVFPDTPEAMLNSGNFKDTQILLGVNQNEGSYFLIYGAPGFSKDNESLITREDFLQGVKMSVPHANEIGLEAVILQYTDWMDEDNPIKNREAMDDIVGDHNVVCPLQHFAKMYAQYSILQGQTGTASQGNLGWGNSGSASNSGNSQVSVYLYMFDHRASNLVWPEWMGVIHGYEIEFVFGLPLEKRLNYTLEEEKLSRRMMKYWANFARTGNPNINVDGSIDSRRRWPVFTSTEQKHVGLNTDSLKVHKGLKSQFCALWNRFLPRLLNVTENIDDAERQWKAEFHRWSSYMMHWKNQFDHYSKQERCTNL
Assay [6] addresses Cholinesterase (Equus caballus) (UniProt P81908). The following applies: at 2 mg/mL.
Description: Inhibition of horse BChE at 2 mg/ml by Ellman's method
Assay [7] addresses Cholinesterase (Homo sapiens, UniProt P06276). In words: Inhibition of human BChE by Ellman's method.
Assay [8] is described as follows: Inhibition of amyloid beta (1 to 40) aggregation assessed as induction of disaggregation at 10 uM treated 24 hrs after formation of aggregates by thioflavin T fluorescence method.
Assay [9] in a line: Inhibition of amyloid beta (1 to 40) aggregation assessed as induction of disaggregation treated 45 mins after formation of aggregates by thioflavin T fluorescence method.
Assay [10] in a line: Inhibition of amyloid beta (1 to 40) aggregation assessed as induction of disaggregation at 100 uM treated 24 hrs after formation of aggregates by thioflavin T fluorescence method.
Assay [11] in a line: Inhibition of HFIP-induced amyloid beta (1 to 40) aggregation at 20 uM after 45 mins by thioflavin T fluorescence method.
The nature of assay [12]: Inhibition of HFIP-induced amyloid beta (1 to 40) aggregation after 45 mins by thioflavin T fluorescence method.
Assay [13] is described as follows: Inhibition of amyloid beta (1 to 40) aggregation assessed as induction of disaggregation at 100 uM treated 4 days after formation of aggregates by thioflavin T fluorescence method.
The target of assay [14] is Acetylcholinesterase (Homo sapiens, UniProt P22303).
Chain of Acetylcholinesterase (Homo sapiens, UniProt P22303) (P22303 whole entry): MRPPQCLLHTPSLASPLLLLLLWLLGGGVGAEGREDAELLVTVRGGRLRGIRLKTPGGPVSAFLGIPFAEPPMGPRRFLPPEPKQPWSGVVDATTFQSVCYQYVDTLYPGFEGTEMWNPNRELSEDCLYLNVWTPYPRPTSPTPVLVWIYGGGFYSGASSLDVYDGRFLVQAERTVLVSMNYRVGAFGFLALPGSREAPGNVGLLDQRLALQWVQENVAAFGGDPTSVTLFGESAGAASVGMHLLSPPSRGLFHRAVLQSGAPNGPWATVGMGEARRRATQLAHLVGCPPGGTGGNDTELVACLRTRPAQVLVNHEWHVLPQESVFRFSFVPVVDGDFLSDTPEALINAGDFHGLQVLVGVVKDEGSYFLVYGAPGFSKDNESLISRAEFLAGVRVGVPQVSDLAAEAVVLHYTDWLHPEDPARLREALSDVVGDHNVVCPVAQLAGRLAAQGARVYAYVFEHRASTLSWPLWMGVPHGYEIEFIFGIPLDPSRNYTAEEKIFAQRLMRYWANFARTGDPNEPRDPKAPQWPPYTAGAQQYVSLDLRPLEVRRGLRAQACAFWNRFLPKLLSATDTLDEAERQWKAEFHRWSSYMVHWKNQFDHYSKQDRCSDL
Description: Inhibition of human AChE by Ellman's method

Where a name gives a salt, the structure may show the parent alone.

Chain of Cholinesterase (Homo sapiens, UniProt P06276) (P06276 whole entry): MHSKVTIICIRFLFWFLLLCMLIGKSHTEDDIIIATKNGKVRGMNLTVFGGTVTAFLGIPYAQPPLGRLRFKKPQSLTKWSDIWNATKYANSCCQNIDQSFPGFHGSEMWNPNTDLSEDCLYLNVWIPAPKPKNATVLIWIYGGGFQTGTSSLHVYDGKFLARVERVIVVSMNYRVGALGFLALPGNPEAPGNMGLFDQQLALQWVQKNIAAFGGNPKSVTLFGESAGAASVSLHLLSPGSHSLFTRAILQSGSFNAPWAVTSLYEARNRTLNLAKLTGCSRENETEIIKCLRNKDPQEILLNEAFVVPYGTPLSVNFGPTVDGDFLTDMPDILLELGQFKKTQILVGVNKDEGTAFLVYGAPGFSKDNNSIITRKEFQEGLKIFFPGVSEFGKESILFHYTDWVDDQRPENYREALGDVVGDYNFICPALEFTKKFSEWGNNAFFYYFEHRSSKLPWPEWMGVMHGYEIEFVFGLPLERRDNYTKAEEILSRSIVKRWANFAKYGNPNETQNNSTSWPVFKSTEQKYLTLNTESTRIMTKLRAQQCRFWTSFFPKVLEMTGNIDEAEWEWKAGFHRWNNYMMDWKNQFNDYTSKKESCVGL
Chain of Cholinesterase (Equus caballus, UniProt P81908) (P81908 whole entry): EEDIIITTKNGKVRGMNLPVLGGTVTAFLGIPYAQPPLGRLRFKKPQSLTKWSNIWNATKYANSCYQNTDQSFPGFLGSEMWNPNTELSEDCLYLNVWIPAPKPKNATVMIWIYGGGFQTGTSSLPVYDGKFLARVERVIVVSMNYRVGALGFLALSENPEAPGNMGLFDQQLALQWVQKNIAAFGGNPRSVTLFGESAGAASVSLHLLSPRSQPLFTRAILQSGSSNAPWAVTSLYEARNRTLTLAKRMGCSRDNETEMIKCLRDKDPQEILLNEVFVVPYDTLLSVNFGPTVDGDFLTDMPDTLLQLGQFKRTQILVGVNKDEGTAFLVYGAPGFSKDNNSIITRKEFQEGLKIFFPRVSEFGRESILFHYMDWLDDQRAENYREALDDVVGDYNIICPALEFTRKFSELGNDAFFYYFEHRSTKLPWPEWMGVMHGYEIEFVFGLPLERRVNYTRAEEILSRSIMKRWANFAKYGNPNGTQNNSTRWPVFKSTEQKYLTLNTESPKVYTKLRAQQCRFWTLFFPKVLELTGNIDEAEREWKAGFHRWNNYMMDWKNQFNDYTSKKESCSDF
Chain of Cholinesterase (Equus caballus) (P81908 whole entry): as above

`Oc1cccc2[nH]ccc12` registered a half-inhibitory concentration (IC50) in assay [1] of 85 µM.
On to `Nc1ccc(O)cc1`, for which the inhibition in assay [2] was determined as 64%.
As to `CCC1=C[C@@H]2CN3CCc4c([nH]c5ccccc45)[C@@](C(=O)OC)(C2)[C@@H]13` [CATHARANTHINE BASE], the IC50 at Cholinesterase [3] (read-out: IC50) was 5.17 µM; against Acetylcholinesterase [4] it was “Not Active”; at Cholinesterase [7] (read-out: IC50), 3.17 µM. Further, the values for the inhibition in assay [5] and in assay [6] were 5.28% and 75.2%, respectively.
In the case of `C=C[C@H]1C[N@@]2CC[C@H]1C[C@@H]2[C@@H](O)c1ccnc2ccc(OC)cc12` [QUINIDINE], the IC50 on Cholinesterase [3] (read-out: IC50) worked out at 7.37 µM; on Cholinesterase [7] (read-out: IC50) it was 1.23 µM.
For `Cc1c([C@H](C)[C@@H]2NC[C@@H](C)C[C@H]2O)ccc2c1C[C@H]1[C@H]2CC=C2C[C@@H](O)CC[C@@]21C` [VERATRAMINE], the 50% inhibitory concentration (IC50) was 10.8 µM at Cholinesterase [3] (read-out: IC50), “Not Active” at Acetylcholinesterase [4] and 19.5 µM at Cholinesterase [7] (read-out: IC50). The inhibition came out at 24.5% in assay [5] and 66.2% in [6].
For the compound `Oc1ccc(/C=C/c2cc(O)cc(O)c2)cc1` [RESVERATROL], the inhibition came out at 71% in assay [8], 15.1% in assay [5], 36.8% in [6] and 32% in assay [10]. Further, the IC50 in [9] was determined as 81.8 µM.
As to `COc1ccc2cc3[n+](cc2c1OC)CCc1cc2c(cc1-3)OCO2` [BERBERINE CHLORIDE], the IC50 on Acetylcholinesterase [4] (read-out: IC50) stood at 2.74 µM; in assay [9] it was 106 µM; in [12], 43.8 µM. The figures for the inhibition in [5] and in assay [11] were 79% and 36%, respectively.
As to `O[C@H]1CCN2Cc3ccccc3N=C12` [VASICINE], the IC50 on Cholinesterase [3] (read-out: IC50) was 2.53 µM; against Acetylcholinesterase [4] it was “Not Active”; at Cholinesterase [7] (read-out: IC50) it was 3.13 µM. Moreover, the inhibition in assay [6] amounted to 85.7%.
On to `C[C@@H]1CC[C@H]2[C@H](C)[C@H]3CC[C@@]4(O)[C@@H]5CC(=O)[C@H]6CC(=O)CC[C@]6(C)[C@H]5C[C@H]4[C@@H]3CN2C1` [SEVEDINDIONE], for which the concentration for half-maximal inhibition (IC50) at Cholinesterase [3] (read-out: IC50) was 3.68 µM; against Acetylcholinesterase [4], “Not Active”; at Cholinesterase [7] (read-out: IC50), 0.27 µM. The inhibition in assay [6] stood at 17%.
As for `CC(C)=CCC[C@]1(C)[C@@H](CC=C(C)C)C[C@]2(CC=C(C)C)C(=O)C(CC=C(C)C)=C(O)[C@@]1(C(=O)C(C)C)C2=O`, the inhibition in assay [13] amounted to 20%.
Regarding `OC1c2ccccc2N=C2CCCN21` (centres undefined) [PEGANOLE], the values for the IC50 at Cholinesterase [3] (read-out: IC50), against Acetylcholinesterase [4] and on Cholinesterase [7] (read-out: IC50) were 11.4 µM, “Not Active” and > 20 µM, respectively. Further, the inhibition in assay [6] was found to be 65.7%.
Turning to `Cl.Cl.c1ccc2c3c([nH]c2c1)[C@H]1[C@H]2CC[C@H]([C@@H]4CCCN[C@@H]42)N1CC3`, the IC50 is 10.6 µM at Cholinesterase [3] (read-out: IC50), “Not Active” on Acetylcholinesterase [4] and 9.01 µM at Cholinesterase [7] (read-out: IC50). Also, the results for the inhibition in assay [5] and in [6] were 20.5% and 48.7%, respectively.
Consider `C=C[C@H]1CN2CC[C@H]1C[C@@H]2[C@@H](O)c1ccnc2ccc(OC)cc12` [QUINIDINE], for which the IC50 result on Acetylcholinesterase [4] is listed as “Not Active”. For the same compound, the inhibition is 20.2% in assay [5] and 66% in [6].
For `COC(=O)[C@H]1[C@H]2C[C@H]3c4[nH]c5ccccc5c4CCN3C[C@H]2CC[C@@H]1O.Cl` [RAUWOLSCINE HYDROCHLORIDE], the IC50 on Cholinesterase [3] (read-out: IC50) is 8.38 µM; against Acetylcholinesterase [4], “Not Active”; at Cholinesterase [7] (read-out: IC50), 13.7 µM. In addition, the inhibition was 12.4% in assay [5] and 59.1% in assay [6].
As to `COc1cc2c3cc1Oc1c(OC)c(OC)cc4c1[C@@H](Cc1ccc(OC(=O)c5ccc([N+](=O)[O-])cc5)c(c1)Oc1ccc(cc1)C[C@@H]3N(C)CC2)N(C)CC4` [E6 BERBAMINE], the IC50 on Cholinesterase [3] (read-out: IC50) is 4.2 µM; against Acetylcholinesterase [4] it was “Not Active”; on Cholinesterase [7] (read-out: IC50), 2.14 µM. Besides, the inhibition in assay [6] amounted to 0.47%.
`COc1cc2c3cc1Oc1c(OO)c(OC)cc4c1[C@H](Cc1ccc(cc1)Oc1cc(ccc1O)C[C@H]3N(C)CC2)N(C)CC4.O=S(=O)(O)O` [OXYACANTHINE SULFATE]: the IC50 was 4.1 µM on Cholinesterase [3] (read-out: IC50), “Not Active” on Acetylcholinesterase [4] and 1.89 µM at Cholinesterase [7] (read-out: IC50). Further, the inhibition in [5] is 0.62%; in assay [6], 66.3%.
`C[C@@H]1OC(=O)[C@H]2C[C@H]3CCCC[C@@H]3[C@@H](/C=C/[C@H]3CCC[C@H](C)N3C)[C@@H]12` [HIMBACINE]: the IC50 entry on Cholinesterase [3] was “Not Active”; at Acetylcholinesterase [4] (read-out: IC50), 22.7 µM; on Cholinesterase [7] it was “Not Active”. Also, in assay [5], the inhibition was 57%.
On to `C[C@@H]1C/C=C/C=C/C=C/C=C/[C@H](O[C@@H]2O[C@H](C)[C@@H](O)[C@H](N)[C@@H]2O)C[C@@H]2O[C@](O)(C[C@@H](O)C[C@H]3O[C@@H]3/C=C/C(=O)O1)C[C@H](O)[C@H]2C(=O)O`, for which the inhibition in assay [5] is -4.37%; in assay [6], -8.59%.
Regarding `CC1=CC(=O)C2=C(C)CC[C@@H]3[C@H](OC(=O)[C@H]3C)[C@@H]12`, the results for the inhibition in assay [5] and in assay [6] were -3.63% and 0.28%, respectively.
Take `COc1ccc2[nH]cc(CCNC(C)=O)c2c1`: the values for the inhibition in assay [5] and in assay [6] were 15.5% and 1.01%, respectively.
`COC(=O)[C@H]1[C@H]2C[C@H]3c4[nH]c5ccccc5c4CCN3C[C@@H]2CC[C@@H]1O`: the results for the inhibition in assay [5] and in assay [6] were 15.8% and 6.02%, respectively.
Turning to `C[C@@H]1O[C@@H](OC[C@H]2O[C@@H](Oc3cc(O)c4c(=O)cc(-c5ccc(O)cc5)oc4c3)[C@H](O)[C@@H](O)[C@@H]2O)[C@H](O)[C@H](O)[C@H]1O`, the inhibition in assay [5] was 23%; in assay [6] it was -5.05%.
Turning to `COc1cc2c(cc1OC)-c1cc3ccc(OC)c(OC)c3c[n+]1CC2.O.[Cl-]` [PALMATINE CHLORIDE HYDRATE], the IC50 result was “Not Active” on Cholinesterase [3], 1.69 µM at Acetylcholinesterase [14], 174 µM in [9] and 92.2 µM in assay [12]. Moreover, the results for the inhibition in [5] and in assay [6] were 72.6% and 7.47%, respectively.
Consider `C[C@H]1CC[C@@]2(OC1)O[C@H]1C[C@H]3[C@@H]4CC[C@@H]5C[C@@H](O)CC[C@]5(C)[C@H]4CC[C@]3(C)[C@H]1[C@@H]2C`, for which the values for the inhibition in [5] and in assay [6] were -3.09% and -2.96%, respectively.
For the compound `CCCC[N+]1(C)[C@@H]2C[C@@H](OC(=O)[C@H](CO)c3ccccc3)C[C@H]1[C@@H]1O[C@@H]12` (some centres undefined), the inhibition is 22.5% in [5] and -4.42% in assay [6].
As for `CC1=C(/C=C/C(C)=C/C=C/C(C)=C\C(=O)O)C(C)(C)CCC1`, the inhibition in assay [5] came to 11.5%; in [6], 0.91%.
Take `c1ccc2c(c1)CN1CCCC1=N2` [DESOXYPEGANINE HYDROCHLORIDE HYDRATE]: the IC50 came out at 11.9 µM on Cholinesterase [3] (read-out: IC50) and 11.8 µM on Acetylcholinesterase [4] (read-out: IC50). Also, the inhibition amounted to 70.6% in assay [5] and 94.8% in assay [6].
Turning to `O=C(/C=C/c1ccc(O)c(O)c1)OCCc1ccccc1`, the inhibition in assay [5] was -8.88%; in assay [6] it was 17.7%.
With `COc1c2occc2cc2ccc(=O)oc12`, the figures for the inhibition in assay [5] and in assay [6] were 4.4% and 8.34%, respectively.
Consider `CC1(C)CC[C@]2(C(=O)O)CC[C@]3(C)C(=CC[C@@H]4[C@@]5(C)CC[C@H](O)C(C)(C)[C@@H]5CC[C@]43C)[C@@H]2C1`, for which the inhibition in assay [5] amounted to 10.2%; in assay [6], 0.92%.
In the case of `C[C@H]1CC[C@@H]2[C@@H](C)[C@H]3[C@H](C[C@H]4[C@@H]5CC=C6C[C@@H](O[C@@H]7O[C@H](CO)[C@H](O)[C@H](O[C@@H]8O[C@H](CO)[C@@H](O)[C@H](O)[C@H]8O)[C@H]7O[C@@H]7O[C@@H](C)[C@H](O)[C@@H](O)[C@H]7O)CC[C@]6(C)[C@H]5CC[C@]34C)N2C1`, the inhibition is 9.15% in assay [5] and 12.2% in assay [6].
For the compound `O=C1Cc2c([nH]c3ccc(Br)cc23)-c2ccccc2N1`, the inhibition was -7.55% in [5] and -1% in assay [6].
In the case of `O=C1/C(=C/c2ccc(O)c(O)c2)Oc2c1ccc(O[C@@H]1O[C@H](CO)[C@@H](O)[C@H](O)[C@H]1O)c2O`, the inhibition in [5] worked out at 22.4%; in assay [6], 3.06%.
For the compound `CC1=CC(=O)C(C(C)C)=CC1=O`, the figures for the inhibition in assay [5] and in assay [6] were 7.9% and -0.33%, respectively.
As to `CC[C@H]1CN2CCc3c([nH]c4ccccc34)[C@H]2C[C@@H]1/C(=C\OC)C(=O)OC` [HIRSUTINE], the IC50 was 4.97 µM on Cholinesterase [3] (read-out: IC50), “Not Active” on Acetylcholinesterase [4] and 1.97 µM on Cholinesterase [7] (read-out: IC50). Besides, the inhibition in [6] was found to be 87.1%.
As to `COc1cc2c(c(OC)c1OC)-c1ccc(OC)c(=O)cc1[C@@H](NC(C)=O)CC2`, the inhibition in [5] was 0.14%; in [6], 0.1%.

One may read the IC50 as the concentration that inhibits the measured activity by half. As usually defined, the inhibition is the change of the read-out against control, counted positive when it falls.
